Experimental data reported in paper PMC4199987 (Drug Design, Development and Therapy, 2014).
Where two headings read alike, the source gives them in different places. Marks after values point to notes of the source that are not given here.

Columns and labels:
[1] = system: human DPP-II; details: selectivity; cited from earlier work
[2] = system: cytochrome P450 (CYP) 3A4; details: in vitro studies; cited from earlier work
[3] = system: active GLP-1; assay: Postprandial plasma active GLP-1 in healthy subjects; assay type: in vivo, human
[4] = system: human DPP-VIII; details: selectivity; cited from earlier work
[5] = system: whole blood insulin; assay: Postprandial whole blood insulin in healthy subjects; assay type: in vivo, human
[6] = dose range 1.25–60 mg, healthy volunteers; cited from earlier work
[7] = system: CYP1A2; details: in vitro studies; cited from earlier work
[8] = system: human DPP-IX; details: selectivity; cited from earlier work
[9] = system: CYP2C9; details: in vitro studies; cited from earlier work
[10] = system: db/db mice; details: young leptin receptor-deficient db/db mice; cited from earlier work
[11] = system: human DPP-I; details: selectivity; cited from earlier work
[12] = system: antiphagocytic protein 1 (APP1); details: selectivity; cited from earlier work
[13] = system: serum glucose; assay: Postprandial serum glucose in healthy subjects; assay type: in vivo, human
[14] = system: streptozotocin-induced diabetic mice; details: cited from earlier work
[15] = system: CYP2C19; details: in vitro studies; cited from earlier work
[16] = Safety and tolerability assessment; assay type: in vivo, human
[17] = system: granzyme B; details: selectivity; cited from earlier work
[18] = system: CYP3A4; details: in vitro studies; cited from earlier work
[19] = system: CYP3A4; details: in vitro studies; cited from earlier work; remark: listed apart in the source
[20] = system: high fat diet-fed mice; details: cited from earlier work
[21] = system: fibroblast activation protein-alpha (FAPα); details: selectivity; cited from earlier work
[22] = system: CYP2D6; details: in vitro studies; cited from earlier work
[23] = system: prolidase; details: selectivity; cited from earlier work
[24] = cited from earlier work
[25] = baseline corrected, day 1, 5 mg
[26] = baseline corrected, day 1, 10 mg
[27] = baseline corrected, day 1, 20 mg
[28] = baseline corrected, day 10, 5 mg
[29] = baseline corrected, day 10, 10 mg
[30] = baseline corrected, day 10, 20 mg
[31] = baseline uncorrected, day 1, 5 mg
[32] = baseline uncorrected, day 1, 10 mg
[33] = baseline uncorrected, day 1, 20 mg
[34] = baseline uncorrected, day 10, 5 mg
[35] = baseline uncorrected, day 10, 10 mg
[36] = baseline uncorrected, day 10, 20 mg
[37] = 5 mg (N=8), judged to be related to the study drug
[38] = 5 mg once daily for 10 days (N=8)
[39] = 10 mg (N=8), judged to be related to the study drug
[40] = 10 mg once daily for 10 days (N=8)
[41] = 20 mg (N=8), judged to be related to the study drug
[42] = 20 mg once daily for 10 days (N=8)

## CC(C)(C)OC[C@@H]1C(=O)NCCN1C(=O)C[C@H](N)Cc1cc(F)c(F)cc1F [Evogliptin]
[1]
  potency for DPP-IV compared to human DPP-II: more than 20,000 times
[2]
  induction of CYP3A4: not an inducer
[3]; [25]
  Average AUEtotal (CV%) GLP-1: 25.7 (48.3) pM·h
[3]; [26]
  Average AUEtotal (CV%) GLP-1: 24.9 (46.0) pM·h
[3]; [27]
  Average AUEtotal (CV%) GLP-1: 45.3 (73.8) pM·h
[3]; [28]
  Average AUEtotal (CV%) GLP-1: 25.4 (56.7) pM·h
[3]; [29]
  Average AUEtotal (CV%) GLP-1: 22.2 (41.0) pM·h
[3]; [30]
  Average AUEtotal (CV%) GLP-1: 35.5 (67.3) pM·h
[3]; [31]
  Average AUEtotal (CV%) GLP-1: 55.8 (49.6) pM·h
[3]; [32]
  Average AUEtotal (CV%) GLP-1: 55.0 (35.9) pM·h
[3]; [33]
  Average AUEtotal (CV%) GLP-1: 82.8 (55.3) pM·h
[3]; [34]
  Average AUEtotal (CV%) GLP-1: 75.7 (111.2) pM·h
[3]; [35]
  Average AUEtotal (CV%) GLP-1: 52.6 (25.0) pM·h
[3]; [36]
  Average AUEtotal (CV%) GLP-1: 72.8 (37.0) pM·h
[4]
  potency for DPP-IV compared to human DPP-VIII: 6,000 times
[5]; [25]
  Average AUEtotal (CV%) Insulin: 238.3 (15.0) h·μIU/mL
[5]; [26]
  Average AUEtotal (CV%) Insulin: 315.1 (35.7) h·μIU/mL
[5]; [27]
  Average AUEtotal (CV%) Insulin: 223.3 (50.8) h·μIU/mL
[5]; [28]
  Average AUEtotal (CV%) Insulin: 270.9 (36.0) h·μIU/mL
[5]; [29]
  Average AUEtotal (CV%) Insulin: 410.2 (62.6) h·μIU/mL
[5]; [30]
  Average AUEtotal (CV%) Insulin: 301.3 (28.6) h·μIU/mL
[5]; [31]
  Average AUEtotal (CV%) Insulin: 274.9 (14.2) h·μIU/mL
[5]; [32]
  Average AUEtotal (CV%) Insulin: 360.2 (30.6) h·μIU/mL
[5]; [33]
  Average AUEtotal (CV%) Insulin: 264.7 (44.0) h·μIU/mL
[5]; [34]
  Average AUEtotal (CV%) Insulin: 311.3 (32.0) h·μIU/mL
[5]; [35]
  Average AUEtotal (CV%) Insulin: 460.3 (57.2) h·μIU/mL
[5]; [36]
  Average AUEtotal (CV%) Insulin: 349.5 (24.7) h·μIU/mL
[6]
  dose proportionality of PKs after single dose: dose-proportional PKs
  tolerability after single dose: good tolerability
5-20 mg
  interindividual variability (CV%) of AUCτ,ss: < 20%
  interindividual variability (CV%) of Cmax,ss: < 30%
All dosage groups, once daily
  time to attain steady state: ≤ 3 days
Day 10, 5 mg once daily, mean ± SD
  fess (fraction of the administered drug excreted into the urine at the steady state): 0.34±0.08
Day 10, 10 mg once daily, mean ± SD
  fess (fraction of the administered drug excreted into the urine at the steady state): 0.27±0.12
Day 10, 20 mg once daily, mean ± SD
  fess (fraction of the administered drug excreted into the urine at the steady state): 0.27±0.04
Day 10, steady state, 5 mg once daily, mean ± SD
  CLss/F: 49.4 ± 9.6 L/h
Day 10, steady state, 10 mg once daily, mean ± SD
  CLss/F: 63.4 ± 10.7 L/h
Day 10, steady state, 20 mg once daily, mean ± SD
  CLss/F: 54.3 ± 8.6 L/h
human, in vivo
  Tmax: 4 to 5 h
human, in vivo, 5 mg
  AUC(0-t): 73 ± 15.3 ng·h/mL
human, in vivo, 5 mg, Cmax, day 1, 5 mg, mean ± SD
  Cmax: 4.9 ± 1.8 ng/mL
human, in vivo, 5 mg, Cmax,ss, day 10, steady state, 5 mg once daily, mean ± SD
  Cmax: 6.7 ± 1.9 ng/mL
human, in vivo, 5 mg, t1/2,ss, day 10, steady state, 5 mg once daily, mean ± SD
  half-life: 32.9 ± 6.1 h
human, in vivo, 10 mg
  AUC(0-t): 118 ± 24.2 ng·h/mL
human, in vivo, 10 mg, Cmax, day 1, 10 mg, mean ± SD
  Cmax: 9.5 ± 2.1 ng/mL
human, in vivo, 20 mg
  AUC(0-t): 254 ± 44 ng·h/mL
human, in vivo, 20 mg, Cmax, day 1, 20 mg, mean ± SD
  Cmax: 21.7 ± 3.7 ng/mL
human, in vivo, po, 5 mg
  Tmax: 5.1 h
human, in vivo, po, 10 mg
  Tmax: 5 h
human, in vivo, po, 20 mg
  Tmax: 4.5 h
Within the 5–20 mg dose range, repeated administration
  dose linearity of PKs: linear PKs
[7]
  inhibition of CYP1A2: nor an inhibitor
[8]
  potency for DPP-IV compared to human DPP-IX: 6,000 times
[9]
  inhibition of CYP2C9: nor an inhibitor
[10]
  effect on onset of diabetes: delayed the onset of diabetes
[11]
  potency for DPP-IV compared to human DPP-I: more than 20,000 times
[12]
  potency for DPP-IV compared to APP1: more than 20,000 times
[13]; 5 mg
  reduction of baseline corrected AUEtotal of glucose compared to placebo: 20%
[13]; 10 mg
  reduction of baseline corrected AUEtotal of glucose compared to placebo: 25%
[13]; 20 mg
  reduction of baseline corrected AUEtotal of glucose compared to placebo: 35%
[13]; 5-20 mg
  effect on fasting glucose levels: did not affect the fasting glucose levels
[13]; [25]
  Average AUEtotal (CV%) Glucose: 264.1 (36.1) h·mg/dL
[13]; [26]
  Average AUEtotal (CV%) Glucose: 234.9 (24.9) h·mg/dL
[13]; [27]
  Average AUEtotal (CV%) Glucose: 229.7 (37.6) h·mg/dL
[13]; [28]
  Average AUEtotal (CV%) Glucose: 259.4 (25.2) h·mg/dL
[13]; [29]
  Average AUEtotal (CV%) Glucose: 242.8 (41.6) h·mg/dL
[13]; [30]
  Average AUEtotal (CV%) Glucose: 209.3 (31.0) h·mg/dL
[13]; [31]
  Average AUEtotal (CV%) Glucose: 741.3 (14.1) h·mg/dL
[13]; [32]
  Average AUEtotal (CV%) Glucose: 747.3 (6.0) h·mg/dL
[13]; [33]
  Average AUEtotal (CV%) Glucose: 747.8 (11.9) h·mg/dL
[13]; [34]
  Average AUEtotal (CV%) Glucose: 759.6 (9.1) h·mg/dL
[13]; [35]
  Average AUEtotal (CV%) Glucose: 751.4 (12.6) h·mg/dL
[13]; [36]
  Average AUEtotal (CV%) Glucose: 727.0 (7.2) h·mg/dL
[14]
  effect on β-cell replication and neogenesis: increased β-cell replication and neogenesis
[15]
  inhibition of CYP2C19: nor an inhibitor
[16]; 5 mg (N=8)
  Cough, number of cases: 1
  Epigastric discomfort, number of cases: 1
  Eyeball pain, number of cases: 1
  Poor-quality sleep, number of cases: 1
  Rhinorrhea, number of cases: 1
  Sweating, number of cases: 1
  Throat irritation, number of cases: 1
  Vasovagal syncope, number of cases: 1
[16]; [37]
  Fatigue, number of cases: 1 ^a
  Insomnia, number of cases: 1 ^a
[16]; [38]
  % of subjects with AEs in a group: 50%
  AEs, number of cases: 10
[16]; 10 mg (N=8)
  Musculoskeletal discomfort, number of cases: 1
  Pharyngitis, number of cases: 1
[16]; [39]
  Epigastric discomfort, number of cases: 1 ^a
  Sweating, number of cases: 1 ^a
[16]; [40]
  % of subjects with AEs in a group: 50%
  AEs, number of cases: 5
[16]; 20 mg (N=8)
  Joint pain, number of cases: 1
  Prurigo, number of cases: 1
[16]; [41]
  Headache, number of cases: 1 ^a
  Increased urinary frequency, number of cases: 1 ^a
[16]; [42]
  % of subjects with AEs in a group: 37.5%
  AEs, number of cases: 4
[16]; 5-20 mg once daily for 10 days
  Serious AEs: No serious AEs were reported
  Severity of AEs: all AEs were mild in severity
[16]; all evogliptin dose groups, 5-20 mg for 10 days
  AEs, number of cases in subjects administered evogliptin: 19 cases
[16]; all evogliptin dose groups, eleven subjects
  Subjects with AEs among those administered evogliptin: 45.8%
[16]; healthy subjects, 5–20 mg dose range
  Tolerability of repeated administration: well tolerated
[17]
  potency for DPP-IV compared to granzyme B: more than 20,000 times
[18]
  enzyme mediating metabolism: primarily mediated by CYP3A4
[19]
  inhibition of CYP3A4: nor an inhibitor
[20]
  effect on insulin sensitivity: improved insulin sensitivity
[21]
  potency for DPP-IV compared to FAPα: more than 20,000 times
[22]
  inhibition of CYP2D6: nor an inhibitor
[23]
  potency for DPP-IV compared to prolidase: more than 20,000 times

## CC#CCn1c(N2CCC[C@@H](N)C2)nc2c1c(=O)n(Cc1nc(C)c3ccccc3n1)c(=O)n2C [linagliptin]
[24]
  terminal elimination half-life: 120 h
